{"source": "patent US20050123479A1", "about": "“Therapeutic properties of oils” (priority 2002, published 2005)", "tested_on": "human T lymphocytes", "experiment": "PHA-induced lymphocyte proliferation (3H-TdR incorporation)", "assay_type": "cell-based", "conditions": "compared with 18:1ω9, 18:0 and 18:2; preliminary studies (FIG. 24)", "experimental": "Lymphocyte proliferation was measured by a semi-automated microtechnique (12). Human mononuclear cells (2×10^5) were seeded into u-bottomed wells of a micro-titre plate (50 μl) and treated with 500 of the ethanol emu oil fraction. After 30 min incubation, […] PHA was added to stimulate the T lymphocytes. The cells were incubated for 72 h at 37° C. in an atmosphere of 5% CO2-air and high humidity. At 6 h prior to harvest, the cultures were pulsed with 1 μCi of ^3H-TdR. The cells were harvested and the amount of radioactivity incorporated measured in a liquid scintillation counter.\nMakin emu oil was subjected to solubility in ethanol. This ethanol soluble oil fraction was then tested for ability to depress proliferation of mitogen stimulated human lymphocytes. The mononuclear cells were isolated from peripheral blood and pretreated for 30 min with dilutions of the fraction and then challenged with phytohaemagglutinin (PHA). Proliferation of lymphocytes was measured after 48 hours using ^3H-TdR incorporation as a marker for DNA synthesis."}
{"compound": "CCCCC/C=C\\C/C=C\\CCCCCCCC(=O)O", "note": "[18:2ω6, Linoleic acid (18:2ω6)]", "values": [{"measurement": "inhibition of T lymphocyte and mononuclear cell responses by fatty acids", "value": "strongly inhibitory"}]}
